Test [1] deals with Carbonic anhydrase 5A, mitochondrial (Homo sapiens, UniProt P35218). The experiment in a line: Binding affinity towards recombinant human mitochondrial carbonic anhydrase V.
Test [2] has as its target Carbonic anhydrase 2 (Homo sapiens, UniProt P00918). The experiment in a line: Binding affinity towards human cytosolic carbonic anhydrase II.
Test [3] deals with Carbonic anhydrase 9 (Homo sapiens, UniProt Q16790). The test is described as follows: Binding affinity owards recombinant human transmembrane carbonic anhydrase IX.
The target of test [4] is Carbonic anhydrase 4 (Homo sapiens, UniProt P22748). The test is described as follows: Binding affinity towards human membrane associated carbonic anhydrase IV.
Test [5] deals with Carbonic anhydrase 1 (Homo sapiens) (UniProt P00915). The test is described as follows: Activation constant towards human cytosolic carbonic anhydrase I; Activator.

pKi: −log10 of the molar value.

Sequence of Carbonic anhydrase 4 (P22748 whole entry): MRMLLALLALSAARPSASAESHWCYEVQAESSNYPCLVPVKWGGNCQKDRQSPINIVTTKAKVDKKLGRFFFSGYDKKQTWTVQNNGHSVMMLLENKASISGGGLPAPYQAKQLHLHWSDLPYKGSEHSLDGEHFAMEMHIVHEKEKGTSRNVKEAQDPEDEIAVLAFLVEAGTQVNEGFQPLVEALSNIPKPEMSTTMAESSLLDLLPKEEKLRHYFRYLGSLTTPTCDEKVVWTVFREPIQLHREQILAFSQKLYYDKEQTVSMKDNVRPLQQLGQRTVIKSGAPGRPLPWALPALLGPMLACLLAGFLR
Sequence of Carbonic anhydrase 1 (Homo sapiens) (P00915 2-261 limits assumed): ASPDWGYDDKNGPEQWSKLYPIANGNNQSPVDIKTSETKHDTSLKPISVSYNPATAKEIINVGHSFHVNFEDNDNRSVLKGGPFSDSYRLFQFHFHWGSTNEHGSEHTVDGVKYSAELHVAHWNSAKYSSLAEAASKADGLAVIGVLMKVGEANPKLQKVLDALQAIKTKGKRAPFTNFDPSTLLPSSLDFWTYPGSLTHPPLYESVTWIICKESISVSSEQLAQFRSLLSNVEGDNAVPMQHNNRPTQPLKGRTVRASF
Sequence of Carbonic anhydrase 5A, mitochondrial (P35218 whole entry): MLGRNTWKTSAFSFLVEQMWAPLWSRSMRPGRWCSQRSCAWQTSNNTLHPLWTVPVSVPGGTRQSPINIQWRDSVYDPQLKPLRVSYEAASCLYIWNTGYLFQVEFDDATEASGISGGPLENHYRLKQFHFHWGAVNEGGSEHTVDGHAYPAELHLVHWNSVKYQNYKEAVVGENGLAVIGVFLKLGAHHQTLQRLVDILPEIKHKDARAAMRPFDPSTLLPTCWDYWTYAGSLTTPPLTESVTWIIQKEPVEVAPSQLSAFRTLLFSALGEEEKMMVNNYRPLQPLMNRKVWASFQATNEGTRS

As to `CC(OP(=O)(O)O)C(N)C(=O)O` (configuration not stated), the pKi in test [1] was 3.07; in test [2] it was 2.97; in test [3], 2.91; in test [4], 2.50. The molecule also came in with a KA in test [5] of 0.5 mM.

In the case of `N[C@@H](COP(=O)(O)O)C(=O)O` [DEXFOSFOSERINE], the pKi is 3.44 in test [1], 3.38 in test [2], 3.04 in test [3] and 2.37 in test [4]. The same molecule showed a KA in test [5] of 0.1 mM.

For `O=C(O)P(=O)(O)O` [FOSCARNET], the negative logarithm of the Ki (pKi) in test [1] is 1.38. In addition, the KA in test [5] was 0.012 mM.

With `O=P(O)(O)CP(=O)(O)O` [MEDRONIC ACID], the pKi in test [1] was 3.14; in test [2], 2.90; in test [3] it was 3.07; in test [4] it was 2.27. The KA in test [5] turned out to be 0.2 mM.

Regarding `O=C(O)C[C@H](NC(=O)CP(=O)(O)O)C(=O)O` [PALA], the pKi is 3.43 in test [1], 5.11 in test [2], 2.65 in test [3] and 7.10 in test [4]. Further, the KA in test [5] is 0.1 mM.

Take `O=P(O)(O)c1ccccc1` [PHENYLPHOSPHONIC ACID]: the pKi was 4.05 in test [1], 7.00 in test [2], 2.66 in test [3] and 5.27 in test [4]. In test [5], this molecule yielded a KA of 0.0001 mM.

The values above are taken from ChEMBL document CHEMBL1142045, “Carbonic anhydrase inhibitors. Interaction of isozymes I, II, IV, V, and IX with organic phosphates and phosphonates” (Bioorg Med Chem Lett, 2005).
